Results taken from US5612360A, “Angiotensin II antagonists” (Eli Lilly and Company, priority 1993, dated 1997).

What was measured:
rabbit aorta = target: T1, rabbit aorta (Oryctolagus cuniculus, UniProt P34976); experiment: Rabbit Aorta Test System: antagonism of angiotensin II-induced contraction of thoracic aorta rings; type: cell-based, New Zealand white rabbit; conditions: pA2 = -log KB; AII concentration response curve 10^-10 to 10^-7 M, 30 minutes incubation, 37° C.
T1 sequence (P34976 1-359): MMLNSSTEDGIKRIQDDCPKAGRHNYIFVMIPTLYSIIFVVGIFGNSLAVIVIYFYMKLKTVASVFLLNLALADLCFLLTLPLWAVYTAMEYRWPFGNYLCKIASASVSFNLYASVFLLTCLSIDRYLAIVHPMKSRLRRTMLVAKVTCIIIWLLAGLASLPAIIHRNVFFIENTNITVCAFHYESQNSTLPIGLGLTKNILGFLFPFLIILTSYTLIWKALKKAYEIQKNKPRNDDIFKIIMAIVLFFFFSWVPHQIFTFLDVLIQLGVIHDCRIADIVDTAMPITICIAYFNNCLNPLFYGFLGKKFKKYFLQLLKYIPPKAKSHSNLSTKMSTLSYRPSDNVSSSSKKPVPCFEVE

angiotensin II receptor = experiment: Adrenal Glomerulosa Test System: displacement of I^125-angiotensin II binding to rat adrenal membranes; conditions: I^125-angiotensin II 0.1 nM, room temperature, 90 minutes, KI by Cheng Prusoff equation
Experimental: The compounds of Formula I are potent effective antagonists of angiotensin II. The ability of representative compounds of Formula I to block angiotensin II receptor binding was determined using the adrenal glomerulosa assay. The ability to antagonize angiotensininduced vasoconstriction was evaluated in the rabbit aorta test system.
Binding of I^125 -angiotensin II to adrenal membranes was routinely carried out in 96-well filtration plates. Adrenal membranes were prepared from the capsular portion (glomerulosal layer attached) of rat adrenal glands by differential centrifugation. Briefly, capsules were homogenized in a solution containing sucrose, 250 mM; MgCl2, 1 mM; and tris, 5 mM at pH 7.5 and 4° C. using a polytron at setting 5 for 20 seconds. The homogenate was stirred gently for 15 minutes at 4° C. and then centrifuged 10 minutes, at 1000×g, 4° C. The supernatant was centrifuged 30 minutes, at 30,000×g, 4° C., and the resulting pellet resuspended in 50 mM tris. Membrane preparations were stored in aliquots at -70° C. until used. Binding of I^125 -angiotensin II to adrenal membranes was performed at room temperature for 90 minutes in 96-well plates containing a hydrophilic polyvinylidene fluoride membrane (0.45 μm, Millipore-GV multiscreen). Each 250 μl incubate contained the following (final concentration): tris, 50 mM; NaCl, 120 mM; MgCl2, 5 mM; dithiothrietol 1 mM; bovine serum albumin, 0.05%; I^125 -angiotensin II, 0.1 nM; and adrenal membrane protein, 8-15 μg. Antagonists were added in concentrations from 10 nM to 100 μM. Non-specific binding was measured in the presence of 0.1 μM Sar1, Ile8 angiotensin II. Binding was terminated by vacuum filtration. Receptor-ligand complex trapped on filters was washed 3 times with 300 μl ice-cold wash solution (tris, 50 mM; NaCl, 120 mM; MgCl2, 5 mM; dithiothrietol, 1 mM). Filter discs were dried, punched out and counted in a gamma counter at 52% efficiency. Specific binding represented 96% of total binding (approximately 150 fmol angiotensin II/mg protein). The molar concentration (IC50) of the inhibitor that displaced 50% of the binding of 1125 angiotensin II for each compound was calculated using a 4 parameter logistics model (NonLin, SAS Institute). Data are expressed as KI (μm) calculated using the Cheng Prusoff equation. See Cheng et al. Biochemo Pharmacol. 22: 3099 (1973).

With “1-[5(and 6)-[2-(2H-Tetrazol-5-yl)phenyl]-2-pentyl-1H-benzimidazol-1-yl]acetic acid [Example 61]” the “Rabbit Aorta (pA2)” value (rabbit aorta) was 5.4.

In the case of “2-[1-Hexyl-5-[2-(2H-tetrazol-5-yl)phenyl]-1H-benzimidazol-2-yl]propionic Acid [Example 30]”, the “Rabbit Aorta (pA2)” value (rabbit aorta) is reported as 6.5.

With “4-Butoxy-2-[5(and 6)-[2-(2H-tetrazol-5-yl)phenyl]-1H-benzimidazol-1-yl]-butanoic acid [Example 11]” the “Rabbit Aorta (pA2)” value (rabbit aorta) was 6.7.

CCCCCCC(C(=O)O)n1ncc2cc(-c3ccccc3-c3nn[nH]n3)ccc21 (stereo not shown) [27 2H] was tested, and the Ki (angiotensin II receptor) was 5430 nM.

In the case of CCCCCCC(C(=O)O)n1ccc2cc(-c3ccccc3C(=O)O)ccc21 (stereo not shown) [Example 1, 2[-5-(2-Carboxyphenyl)indol-1-yl]octanoic acid], the Ki (angiotensin II receptor) is reported as 3860 nM.

In the case of CCCCCCC(C(=O)O)n1ccc2cc(-c3cccc(O)c3C(=O)O)ccc21 (stereo not shown) [Example 2, 2-[5-(2-Carboxy-3-hydroxyphenyl)indol-1-yl]octanoic acid], the Ki (angiotensin II receptor) is reported as 9450 nM.

CCCCCCC(C(=O)O)n1cnc2cc(-c3ccccc3-c3nn[nH]n3)ccc21 (stereo not shown) [Example 3, 2-[5-[2-(2H-Tetrazol-5-yl)phenyl]-1H-benzimidazol-1-yl]octanoic acid] showed a Ki (angiotensin II receptor) of 5600 nM.

CCCCCCC(C(=O)O)n1c(C)nc2cc(-c3ccccc3-c3nnn[nH]3)ccc21 (stereo not shown) [Example 5] showed a Ki (angiotensin II receptor) of 360 nM.

CCCCCCC(C(=O)O)n1c(C(F)(F)F)nc2cc(-c3ccccc3-c3nn[nH]n3)ccc21 (stereo not shown) [Example 6, 2-[5-[2-(2H-Tetrazol-5-yl)phenyl]-2-trifluoromethyl-1H-benzimidazol-1-yl]octanoic acid] showed a Ki (angiotensin II receptor) of 85 nM.

Work on CCCCCCC(C(=O)N1CCC[C@H]1C(=O)O)n1cnc2cc(-c3ccccc3-c3nn[nH]n3)ccc21 (stereo partly drawn) [Example 9, 1-[1-Oxo-2-[5-[2-(2H-tetrazol-5-yl)phenyl]-1H-benzimidazole-1-yl]octyl]-L-proline] yielded a Ki (angiotensin II receptor) of 29 nM.

CCCCCCC(C(=O)N1CC(O)C[C@H]1C(=O)O)n1cnc2cc(-c3ccccc3-c3nn[nH]n3)ccc21 (stereo partly drawn) [Example 13, 1-[1-oxo-2-[5-[2-(2H-tetrazol-5-yl)phenyl]-1H-benzimidazole-1-yl]octyl]-4-hydroxy-L-proline] was tested, and the Ki (angiotensin II receptor) was 4.2 nM.

In the case of CCCCCCC(c1nccn1C)n1cnc2cc(-c3ccccc3-c3nnn[nH]3)ccc21 (stereo not shown) [Example 14, 1-Methyl-2-[1-[5-2-(2H-Tetrazol-5-yl)phenyl-1H-benzimidazol-1-yl]heptyl]-1H-imidazole], the Ki (angiotensin II receptor) is reported as 1080 nM.

CCCCCC#CC(C(=O)O)n1cnc2cc(-c3ccccc3-c3nn[nH]n3)ccc21 (stereo not shown) [Example 16] was tested, and the “Rabbit Aorta (pA2)” value (rabbit aorta) was 7.2.

CCCCCCC(CC(=O)O)n1ccc2cc(-c3ccccc3-c3nn[nH]n3)ccc21 (stereo not shown) [Example 21, 3-[5-[2-(2H-Tetrazol-5-yl)phenyl]indol-1-yl]nonanoic Acid] showed a Ki (angiotensin II receptor) of 2260 nM.

CCCCCC(C(=O)O)n1ccc2cc(-c3ccccc3-c3nn[nH]n3)ccc21 (stereo not shown) [Example 22, 2-[5-[2-(2H-Tetrazol-5-yl)phenyl]indol-1-yl]heptanoic Acid] gave a Ki (angiotensin II receptor) of 1720 nM.

CCCCCCC(C(=O)O)n1cc(Cc2ccccc2)c2cc(-c3ccccc3-c3nn[nH]n3)ccc21 (stereo not shown) [Example 24, 2-[3-benzyl-5-[2-(2H-tetrazol-5-yl)phenyl]indol-1-yl]octanoic Acid] was tested, and the Ki (angiotensin II receptor) was 13700 nM.

With CCCC/C=C/C(C(=O)O)n1ccc2cc(-c3ccccc3-c3nn[nH]n3)ccc21 (stereo not drawn) [Example 25A, 2-[5-[2-(2H-Tetrazol-5-yl)phenyl]indol-1-yl]-3-trans-octenoic acid] the “Rabbit Aorta (pA2)” value (rabbit aorta) was 6.5.

With CCCC/C=C\C(C(=O)O)n1ccc2cc(-c3ccccc3-c3nn[nH]n3)ccc21 (stereo not drawn) [Example 25B, 2-[5-[2-(2H-tetrazol-5-yl)phenyl]indol-1-yl]-3-cis-octenoic acid] the “Rabbit Aorta (pA2)” value (rabbit aorta) was 7.3.

CCCCCCC(C(=O)O)n1cc(Br)c2cc(-c3ccccc3-c3nnn[nH]3)ccc21 (stereo not shown) [Example 26, 2-[3-Bromo-5-[2-[2H-tetrazol-5-yl)phenyl]indo-1-yl]octanoic Acid] showed a Ki (angiotensin II receptor) of 5720 nM.

CCCCC(c1cccc(C(F)(F)F)c1)n1ccc2cc(-c3ccccc3-c3nn[nH]n3)ccc21 (stereo not shown) [Example 28, 5-[2-(2H-tetrazol-5-yl)phenyl]-1-[1-(3-trifluoromethylphenyl)-1-pentyl]indole] showed a Ki (angiotensin II receptor) of 14300 nM.

Molecule CCCCC(c1ccc(C(F)(F)F)cc1)n1ccc2cc(-c3ccccc3-c3nn[nH]n3)ccc21 (stereo not shown) [Example 29, 5-[2-(2H-tetrazol-5-yl)phenyl]-1-[1-(4-trifluoromethylphenyl)-1-pentyl]indole] has a Ki (angiotensin II receptor) of 19200 nM.

Molecule CCCCCCC(c1nnn[nH]1)n1cnc2cc(-c3ccccc3-c3nnn[nH]3)ccc21 (stereo not shown) [Example 34] has a Ki (angiotensin II receptor) of 62 nM.

CCCCCCC(C(=O)N(C)CC(=O)O)n1cnc2cc(-c3ccccc3-c3nn[nH]n3)ccc21 (stereo not shown) [Example 37, 1-[1-Oxo-2-[5-[2-(2H-tetrazol-5-yl]phenyl]-1H-benzimidazol-1]octyl]-N-methylglycine] showed a Ki (angiotensin II receptor) of 81.4 nM.

Work on CCCCCCC(C(=O)N1CC2(C[C@H]1C(=O)O)OCCO2)n1cnc2cc(-c3ccccc3-c3nn[nH]n3)ccc21 (stereo partly shown) [Example 40] yielded a Ki (angiotensin II receptor) of 250 nM.

CCCCCCC(C(=O)N[C@@H](CC(=O)O)C(=O)O)n1cnc2cc(-c3ccccc3-c3nn[nH]n3)ccc21 (stereo partly drawn) [Example 41, N-[1-Oxo-2-[5-[2-(2H-tetrazol-5-yl]phenyl]-1H-benzimidazol-1-yl]octyl]-L-aspartic Acid] gave a Ki (angiotensin II receptor) of 100 nM.

Work on CCCCCCC(C(=O)N[C@@H](CO)C(=O)O)n1cnc2cc(-c3ccccc3-c3nn[nH]n3)ccc21 (stereo partly drawn) [Example 42, N-[1-oxo-2-[5-[2-(2H-tetrazol-5-yl]phenyl]-1H-benzimidazol-1-yl]octyl]-L-serine] yielded a Ki (angiotensin II receptor) of 265 nM.

CCCCCCC(C(=O)N1CCC1C(=O)O)n1cnc2cc(-c3ccccc3-c3nn[nH]n3)ccc21 (stereo not shown) [Example 43] gave a Ki (angiotensin II receptor) of 69 nM.

CCCCCCC(C(=O)N1CCC(C(=O)O)C1)n1cnc2cc(-c3ccccc3-c3nn[nH]n3)ccc21 (stereo not shown) [Example 44] showed a Ki (angiotensin II receptor) of 199 nM.
